Results reported in patent publication US12478624B2, “Heterocyclic derivatives, pharmaceutical compositions and their use in the treatment or amelioration of cancer” (Tolremo Therapeutics AG, priority 2019, dated 2025).

Tests used:
[1] = test system: OPM-2; assay: Assay 2: multiple myeloma cellular efficacy, PrestoBlue cell proliferation/survival; type: cell-based; conditions: Homo sapiens, 96 h, OPM-2 cells, 4 days
Description: Multiple Myeloma Cellular Efficacy:
10000 OPM-2 (ACC50; DSMZ) were plated into wells of a 384 well plate (Greiner 781090). Cells were treated for 4 days with a dose range of compound or vehicle. At the end of the experiment cells were stained directly with PrestoBlue (ThermoFisher Scietific; A13262) for 2 hours at 37° C. in a humidified incubator according to manufactor's instruction. To assess the relative cell number the PrestoBlue signal was measured using either a TecanM1000Pro reader or a Tecan Sparks reader following the manufactor's instructions. Background (no cells) values were subtracted and set in relation to the vehicle control. To assess the EC50 of each compound the relative fluorescence value was plotted against the compound concentration after log transformation. Data were fitted in a nonlinear manner with a variable slope (four parameters) using graphpad prism software. Cellular efficacy of compounds was evaluated in the multiple myeloma cell line OPM-2 using the cell proliferation/survival assay PrestoBlue. EC50 values are classified as indicated below.

[2] = test system: A375 cells; assay: Assay 1: A375 cells treated with S1152, S1008 and compound, immunofluorescence (sc-365823) signal; type: cell-based; conditions: 1 μM S1152 + 0.5 μM S1008, one day
Description: One thousand four hundred A375 cells were seeded in each well of a 384 well microplate. One day later they were treated with 1 μM S1152 (Selleckchem) in dimethyl sulfoxide, 0.5 μM S1008 (Selleckchem) and dose ranges of invention compounds for one day in Dulbecco's Modified Eagle's Medium supplemented with 10% fetal calf serum and 2 mM (2S)-2-amino-4-carbamoylbutanoic acid. Wells were incubated with 4% polyoxymethylene (Sigma Aldrich 158127) at ambient temperature. […] After one minute phosphate-buffered saline was replaced with 0.2% polyethylene glycol octylphenyl ether in phosphate-buffered saline. […] 1% aminoethanoic acid in phosphate-buffered saline was added for ten minutes at ambient temperature. […] After one hour at ambient temperature in the dark, signal in wells was measured with a Acumen Cellista. 3,8-Diamino-5-[3-(diethylmethylammonio)propyl]-6-phenylphenanthridinium diiodide-positive objects were defined in FL3 (565-600 nm) with a perimeter between 50-800 μm and a total intensity of 10000-1000000 FLU. Signal in FL2 (500-530 nm) was measured in defined objects. A normalized ratio of total In FL2 over total In FL3 staining was log transformed. A non-linear regression (variable slope, 4 parameters) was used to calculate EC50 values using GraphPad Prism (Version 7.0d).
In an alternative procedure, assay 1 has been affected by changing the counteratain. […] Cells were incubated with 0.5 μg/ml 2-(4-Amidinophenyl)-6-indolecarbamidine dihydrochloride, 4′,6-Diamidino-2-phenylindole dihydrochloride (Sigma D9542) in phosphate-buffered saline for at least 30 minutes at ambient temperature in the dark. A Celigo Imager (Nexcelom) was used to acquire images in the blue and green channel. The blue channel was used as a mask to define the area for the green signal. The average integrated intensity of the green signal was normalized and a non-linear regression (variable slope, 4 parameter) was used to calculate the EC50 values using GraphPad Prism (Version 8.4)

| EC50 [2] [nM] | SMILES | EC50 [1] [nM] |
| --- | --- | --- |
| < 200 | CC(=O)Nc1cc(F)cc(Nc2cc(-c3cccnc3)nc([C@@H]3CC[C@H](C)N(C(C)=O)C3)n2)c1 [Compound 00047, N-(3-((2-((3R,6S)-1-acetyl-6-methylpiperidin-3-yl)-6-(pyridin-3-yl)pyrimidin-4-yl)amino)-5-fluorophenyl)acetamide] | < 200 |
| < 200 | CC(=O)N1C[C@H](c2nc(Nc3cccc4c3cnn4C)cc(-c3cnccn3)n2)CC[C@@H]1C [Compound 00049, 1-((2S,5R)-2-methyl-5-(4-((1-methyl-1H-indazol-4-yl)amino)-6-(pyrazin-2-yl)pyrimidin-2-yl)piperidin-1-yl)ethan-1-one] | < 200 |
| < 200 | CC(=O)N1C[C@H](c2nc(Nc3cccc4nn(C)cc34)cc(-c3cnccn3)n2)CC[C@@H]1C [Compound 00050, 1-((2S,5R)-2-methyl-5-(4-((2-methyl-2/−/−indazol-4-yl)amino)-6-(pyrazin-2-yl)pyrimidin-2-yl)piperidin-1-yl)ethan-1-one] | 200 to 1000 |
| 200 to 1000 | CC(=O)N1C[C@H](c2nc(Nc3cccc4c3CC(=O)N4)cc(-c3cccnc3)n2)CC[C@@H]1C [Compound 00051, 4-((2-((3R,6S)-1-acetyl-6-methylpiperidin-3-yl)-6-(pyridin-3-yl)pyrimidin-4-yl)amino)indolin-2-] | 1000 to 10000 |
| < 200 | CC(=O)N1C[C@H](c2nc(Nc3cccc(-c4ncn(C)n4)c3)cc(-c3cccnc3)n2)CC[C@@H]1C [Compound 00052, 1-((2S,5R)-2-methyl-5-(4-((3-(1-methyl-1H-1,2,4-triazol-3-yl)phenyl)amino)-6-(pyridin-3-yl)pyrimidin-2-yl)piperidin-1-yl)ethan-1-one] | < 200 |
| < 200 | CC(=O)Nc1cccc(Nc2cc(-c3cccnc3)nc([C@@H]3CC[C@H](C)N(C(C)=O)C3)n2)c1 [Compound 00054, N-(3-((2-((3R,6S)-1-acetyl-6-methylpiperidin-3-yl)-6-(pyridin-3-yl)pyrimidin-4-yl)amino)phenyl)acetamide] | < 200 |
| < 200 | CC(=O)N1C[C@H](c2nc(Nc3cc(-c4cnn(C)c4)cc(C(F)F)c3)cc(-c3cnccn3)n2)CC[C@@H]1C [Compound 00055, 1-((2S,5R)-5-(4-((3-(difluoromethyl)-5-(1-methyl-1Hpyrazol-4-yl)phenyl)amino)-6-(pyrazin-2-yl)pyrimidin-2-yl)-2-methylpiperidin-1-yl)ethan-1-one] | < 200 |
| < 200 | CC(=O)N1C[C@H](c2nc(Nc3cccc4c3cnn4C)cc(-c3cccnc3)n2)CC[C@@H]1C [Compound 00056, 1-((2S,5R)-2-methyl-5-(4-((1-methyl-1H-indazol-4-yl)amino)-6-(pyridin-3-yl)pyrimidin-2-yl)piperidin-1-yl)ethan-1-one] | < 200 |
| < 200 | CC(=O)N1C[C@H](c2nc(Nc3cc(-c4cnn(C)c4)cc(C(F)F)c3)cc(-c3cccnc3)n2)CC[C@@H]1C [Compound 00057, 1-((2S,5R)-5-(4-((3-(difluoromethyl)-5-(1-methyl-1H-pyrazol-4-yl)phenyl)amino)-6-(pyridin-3-yl)pyrimidin-2-yl)-2-methylpiperidin-1-yl)ethan-1-one] | < 200 |
| < 200 | CC(=O)N1C[C@H](c2nc(Nc3cccc(C(C)(F)F)c3)cc(-c3cccnc3)n2)CC[C@@H]1C [Compound 00058, 1-((2S,5R)-5-(4-((3-(1,1-difluoroethyl)phenyl)amino)-6-(pyridin-3-yl)pyrimidin-2-yl)-2-methylpiperidin-1-yl)ethan-1-one] | 200 to 1000 |
| < 200 | CC(=O)Nc1cc(Nc2cc(-c3cnccn3)nc([C@@H]3CC[C@H](C)N(C(C)=O)C3)n2)cc(C(F)F)c1 [Compound 00059, N-(3-((2-((3R,6S)-1-acetyl-6-methylpiperidin-3-yl)-6-(pyrazin-2-yl)pyrimidin-4-yl)amino)-5-(difluoromethyl)phenyl)acetamide] | < 200 |
| 200 to 1000 | CC(=O)Nc1cc(Nc2cc(-c3cccnc3)nc([C@@H]3CC[C@H](C)N(C(C)=O)C3)n2)cc(C(F)F)c1 [Compound 00060, N-(3-((2-((3R,6S)-1-acetyl-6-methylpiperidin-3-yl)-6-(pyridin-3-yl)pyrimidin-4-yl)amino)-5-(difluoromethyl)phenyl)acetamide] | < 200 |
| < 200 | CC(=O)N1C[C@H](c2nc(Nc3cccc(-c4nnn(C)n4)c3)cc(-c3cccnc3)n2)CC[C@@H]1C [Compound 00062, 1-((2S,5R)-2-methyl-5-(4-((3-(2-methyl-2H-tetrazol-5-yl)phenyl)amino)-6-(pyridin-3-yl)pyrimidin-2-yl)piperidin-1-yl)ethan-1-one] | < 200 |
| < 200 | CC(=O)N1C[C@H](c2nc(Nc3cccc(-n4cnnn4)c3)cc(-c3cccnc3)n2)CC[C@@H]1C [Compound 00063, 1-((2S,5R)-5-(4-((3-(1H-tetrazol-1-yl)phenyl)amino)-6-(pyridin-3-yl)pyrimidin-2-yl)-2-methylpiperidin-1-yl)ethan-1-one] | 200 to 1000 |
| < 200 | CC(=O)N1C[C@H](c2nc(Nc3cccc(-c4noc(C)n4)c3)cc(-c3cnccn3)n2)CC[C@@H]1C [Compound 00064, 1-((2S,5R)-2-methyl-5-(4-((3-(5-methyl-1,2,4-oxadiazol-3-yl)phenyl)amino)-6-(pyrazin-2-yl)pyrimidin-2-yl)piperidin-1-yl)ethan-1-one] | < 200 |
| < 200 | COc1cc(F)cc(Nc2cc(-c3cnccn3)nc([C@@H]3CC[C@H](C)N(C(C)=O)C3)n2)c1 [Compound 00067, 1-((2S,5R)-5-(4-((3-fluoro-5-methoxyphenyl)amino)-6-(pyrazin-2-yl)pyrimidin-2-yl)-2-methylpiperidin-1-yl)ethan-1-one] | < 200 |
| < 200 | CC(=O)N1C[C@H](c2nc(Nc3cccc(-c4cn(C)nn4)c3)cc(-c3cnccn3)n2)CC[C@@H]1C [Compound 00068, 1-((2S,5R)-2-methyl-5-(4-((3-(1-methyl-1H-1,2,3-triazol-4-yl)phenyl)amino)-6-(pyrazin-2-yl)pyrimidin-2-yl)piperidin-1-yl)ethan-1-one] | < 200 |
| < 200 | CC(=O)N1C[C@H](c2nc(Nc3cc(F)cc(N4CCOCC4)c3)cc(-c3cnccn3)n2)CC[C@@H]1C [Compound 00070, 1-((2S,5R)-5-(4-((3-fluoro-5-morpholinophenyl)amino)-6-(pyrazin-2-yl)pyrimidin-2-yl)-2-methylpiperidin-1-yl)ethan-1-one] | < 200 |
| < 200 | CC(=O)N1C[C@H](c2nc(Nc3cccc(-n4ccc(C)n4)c3)cc(-c3cccnc3)n2)CC[C@@H]1C [Compound 00077, 1-((2S,5R)-2-methyl-5-(4-((3-(3-methyl-1H-pyrazol-1-yl)phenyl)amino)-6-(pyridin-3-yl)pyrimidin-2-yl)piperidin-1-yl)ethan-1-one] | 200 to 1000 |
| < 200 | CC(=O)N1C[C@H](c2nc(Nc3cccc(-n4cncn4)c3)cc(-c3cccnc3)n2)CC[C@@H]1C [Compound 00078, 1-((2S,5R)-5-(4-((3-(1H-1,2,4-triazol-1-yl)phenyl)amino)-6-(pyridin-3-yl)pyrimidin-2-yl)-2-methylpiperidin-1-yl)ethan-1-one] | < 200 |
| < 200 | CC(=O)N1C[C@H](c2nc(Nc3cccc(NC(=O)c4ccccc4)c3)cc(-c3cccnc3)n2)CC[C@@H]1C [Compound 00079, N-(3-((2-((3R,6S)-1-acetyl-6-methylpiperidin-3-yl)-6-(pyridin-3-yl)pyrimidin-4-yl)amino)phenyl)benzamide] | < 200 |
| < 200 | CC(=O)N1C[C@H](c2nc(Nc3cccc(F)c3)cc(-c3cccnc3)n2)CC[C@@H]1C [Compound 00080, 1-((2S,5R)-5-(4-((3-fluorophenyl)amino)-6-(pyridin-3-yl)pyrimidin-2-yl)-2-methylpiperidin-1-yl)ethan-1-one] | 200 to 1000 |
| < 200 | CC(=O)N1C[C@H](c2nc(Nc3cccc(-n4ccnn4)c3)cc(-c3cccnc3)n2)CC[C@@H]1C [Compound 00083, 1-((2S,5R)-5-(4-((3-(1H-1,2,3-triazol-1-yl)phenyl)amino)-6-(pyridin-3-yl)pyrimidin-2-yl)-2-methylpiperidin-1-yl)ethan1-one] | 200 to 1000 |
